Read-outs that look alike come from different tables or passages of the source.
Legend:
Assay type in all cases: in vivo
[1] = test system: Avena fatua, wild oats (AVEFA); assay: Biological Example 3 glasshouse screen, post-emergence herbicidal activity; details: 360 h, read-out: AVEFA percentage phytotoxicity
Protocol: (§1) Test Method: Seeds of a variety of test species are sown in standard soil in pots. After cultivation for one day (pre-emergence) or after 12 days cultivation (post-emergence) under controlled conditions in a glasshouse (warm climate species at 24/18°C., cool climate species at 20/16°C., both at day/night; 16 hours light; 65% humidity), the plants are sprayed with an aqueous spray solution derived from the formulation of the “technical”(i.e. unformulated) active ingredient dissolved in acetone plus IF50, at a 1:20 ratio of “technical”active ingredient to IF50. The IF50 contains about 10.56 weight % Emulsogen EL™(castor oil ethoxylate, CAS Registry number 61791-12-6), about 42.22 weight % N-methylpyrrolidone, and about 42.22 weight % DPG-Monoethyl ether (dipropylene glycol mono-ethyl ether). The adjuvant X-77 (a mixture of alkyl aryl polyoxyethylene glycols and free fatty acids in isopropanol, CAS Registry number 11097-66-8) is added to the aqueous spray solution to form a 0.2% v/v solution, before spraying onto the plants.
(§2) The test plants are then grown in a glasshouse under controlled conditions in a glasshouse (at 24/18°C. or 20/16°C., day/night; 16 hours light; 65% humidity) and watered twice daily. After 15 days after application of the herbicide (15 DAA) (for post-emergence), and after 20 DAA (for pre-emergence), the test is evaluated visually, and an assessed percentage phytotoxicity score is given for each herbicidal application on each plant/weed species (with 100%=total damage to plant; 0%=no damage to plant). […]

[2] = test system: Echinochloa crus galli, barnyardgrass (ECHCG); assay: as above; details: 360 h, read-out: ECHCG percentage phytotoxicity
Protocol: as §1, §2

[3] = test system: Lolium perenne, perennial ryegrass (LOLPE); assay: as above; details: 360 h, read-out: LOLPE percentage phytotoxicity
Protocol: as §1, §2

[4] = test system: Alopecurus myosuroides, blackgrass (ALOMY); assay: as above; details: 360 h, read-out: ALOMY percentage phytotoxicity
Protocol: as §1, §2

[5] = test system: Avena fatua (AVEFA); assay: Biological Example 2 post-emergence herbicidal activity (comparative data)
Protocol: (§3) Seeds of a variety of test species were sown in standard soil in pots. After cultivation for one day (pre-emergence) or after 8 days cultivation (post-emergence) under controlled conditions in a glasshouse (at 24/16°C., day/night; 14 hours light; 65% humidity), the plants were sprayed with an aqueous spray solution derived from the formulation of the “technical”(i.e. unformulated) active ingredient in acetone/water (50:50) solution containing 0.5% Tween 20 (polyoxyethylene sorbitan monolaurate, CAS Registry Number 9005-64-5). The test plants were then grown in a glasshouse under controlled conditions in a glasshouse (at 24/16°C., day/night; 14 hours light; 65% humidity) and watered twice daily. After 13 days for pre- or post-emergence, the test was evaluated visually, and an assessed percentage phytotoxicity score given for each herbicidal application on each plant/weed species (with 100%=total damage to plant; 0%=no damage to plant).
(§4) Comparative herbicidal data are given for certain exemplified compounds with 4-(prop-1-ynyl)-2,6-dimethylphenyl or 4-(chloroethynyl)-2,6-dimethylphenyl headgroups, compared to the corresponding comparative compounds with 4-ethynyl-2,6-dimethylphenyl headgroups, as follows.
(§5) Except where specified otherwise, the glasshouse screen for herbicidal activity is substantially the same as that presented in Biological Example 1 hereinabove. The weed abbreviations are as defined in Biological Example 1.

[6] = test system: Lolium perenne (LOLPE); assay: as above
Protocol: as §3, §4, §5

[7] = test system: Echinochloa crus-galli (ECHCG); assay: as above; details: 312 h, read-out: ECHCG percentage phytotoxicity
Protocol: as §3, §4, §5

[8] = test system: Alopecurus myosuroides (ALOMY); assay: as above; details: 312 h, read-out: ALOMY percentage phytotoxicity
Protocol: as §3, §4, §5

[9] = test system: Avena fatua (AVEFA); assay: Biological Example 1 glasshouse screen, pre-emergence herbicidal activity; details: 312 h, read-out: AVEFA percentage phytotoxicity
Protocol: as §3
(§6) Test plants: Lolium perenne (LOLPE), Alopecurus myosuroides (ALOMY), Echinochloa crus-galli (ECHCG), and Avena fatua (AVEFA). All four of these are grassy monocotyledonous weeds.

[10] = test system: Lolium perenne (LOLPE); assay: as above; details: 312 h, read-out: LOLPE percentage phytotoxicity
Protocol: as §3, §6

[11] = test system: Echinochloa crus-galli (ECHCG); assay: as above; details: 312 h, read-out: ECHCG percentage phytotoxicity
Protocol: as §3
(§7) Test plants: Alopecurus myosuroides (ALOMY), Setaria faberi (SETFA), Echinochloa crus-galli (ECHCG), Solanum nigrum (SOLNI), Amaranthus retroflexus (AMARE) and Ipomoea hederacea (IPOHE). ALOMY, SETFA and ECHCG are grassy monocotyledonous weeds. SOLNI, AMARE and IPOHE are dicotyledonous (broadleaved) weeds.
as §6

[12] = test system: Alopecurus myosuroides (ALOMY); assay: as above; details: 312 h, read-out: ALOMY percentage phytotoxicity
Protocol: as §3, §7, §6

[13] = test system: Echinochloa crus-galli (ECHCG); assay: Biological Example 1 glasshouse screen, post-emergence herbicidal activity; details: 312 h, read-out: ECHCG percentage phytotoxicity
Protocol: as §3, §7, §6

[14] = test system: Alopecurus myosuroides (ALOMY); assay: as above; details: 312 h, read-out: ALOMY percentage phytotoxicity
Protocol: as §3, §7, §6

[15] = test system: Triticum aestivum, wheat (TRZAW); assay: Biological Example 3 glasshouse screen, post-emergence, phytotoxicity on wheat; details: 360 h, read-out: TRZAW percentage phytotoxicity
Protocol: as §1
The test plants are then grown in a glasshouse under controlled conditions in a glasshouse (at 24/18°C. or 20/16°C., day/night; 16 hours light; 65% humidity) and watered twice daily. After 15 days after application of the herbicide (15 DAA) (for post-emergence), and after 20 DAA (for pre-emergence), the test is evaluated visually, and an assessed percentage phytotoxicity score is given for each herbicidal application on each plant/weed species (with 100%=total damage to plant; 0%=no damage to plant).
These give an approximate indication of the level of selectivity on wheat for these tested compounds, when a herbicide safener such as cloquintocet-mexyl is not used: […]

[16] = test system: Avena fatua (AVEFA); assay: Biological Example 1 glasshouse screen, post-emergence herbicidal activity; details: 312 h, read-out: AVEFA percentage phytotoxicity
Protocol: as §3, §6

[17] = test system: Lolium perenne (LOLPE); assay: as above; details: 312 h, read-out: LOLPE percentage phytotoxicity
Protocol: as §3, §6

[18] = application rate 30 g/ha, 15 DAA, no safener
[19] = application rate 250 g/ha, evaluated after 13 days

Q: How did the pest or weed control at 30 g/ha [1] turn out when `CC#Cc1cc(C)c(C2=C(O)CC(Cc3ccccn3)C2=O)c(C)c1` (racemic) [Compound A-2, rac-2-(2,6-Dimethyl-4-prop-1-ynylphenyl)-4-(pyridin-2-ylmethyl)cyclopentane-1,3-dione] was run?
A: 70%

Q: And the pest or weed control at 30 g/ha [2]?
A: 100%

Q: What about the pest or weed control at 30 g/ha [3] of the same molecule?
A: 90%

Q: And the pest or weed control at 30 g/ha [4]?
A: 90%

Q: What about the AVEFA percentage phytotoxicity ([5]; 15.625 g/ha application rate) of the same molecule?
A: 80%

Q: And the AVEFA percentage phytotoxicity ([5]; 62.5 g/ha application rate)?
A: 90%

Q: And the LOLPE percentage phytotoxicity ([6]; 15.625 g/ha application rate)?
A: 100%

Q: What about the LOLPE percentage phytotoxicity ([6]; 62.5 g/ha application rate) of the same molecule?
A: 100%

Q: What about the pest or weed control at 15.625 g/ha [7] of the same molecule?
A: 100%

Q: And the pest or weed control at 62.5 g/ha [7]?
A: 100%

Q: What about the pest or weed control at 15.625 g/ha [8] of the same molecule?
A: 90%

Q: What about the pest or weed control at 62.5 g/ha [8] of the same molecule?
A: 100%

Q: What about the pest or weed control at 250 g/ha [9] of the same molecule?
A: 70%

Q: And the pest or weed control at 250 g/ha [10]?
A: 100%

Q: And the pest or weed control at 250 g/ha [11]?
A: 100%

Q: And the pest or weed control at 250 g/ha [12]?
A: 100%

Q: And the pest or weed control at 250 g/ha [13]?
A: 100%

Q: What about the pest or weed control at 250 g/ha [14] of the same molecule?
A: 100%

Q: And the plant injury at 30 g/ha [15]?
A: 30%

Q: What about the pest or weed control at 250 g/ha [16] of the same molecule?
A: 100%

Q: And the pest or weed control at 250 g/ha [17]?
A: 100%

Q: With `CC#Cc1cc(C)c(C2=C(O)CC(CC3CCOCC3)C2=O)c(C)c1` (stereo not drawn) [Compound A-4, 2-(2,6-Dimethyl-4-prop-1-ynylphenyl)-4-(tetrahydropyran-4-ylmethyl)cyclopentane-1,3-dione] as the molecule, how does the pest or weed control at 30 g/ha [1, 18] read?
A: 80%

Q: And the pest or weed control at 30 g/ha [2, 18]?
A: 100%

Q: And the pest or weed control at 30 g/ha [3, 18]?
A: 100%

Q: What about the pest or weed control at 30 g/ha [4, 18] of the same molecule?
A: 100%

Q: And the AVEFA percentage phytotoxicity ([5]; 15.625 g/ha application rate)?
A: 100%

Q: What about the AVEFA percentage phytotoxicity ([5]; 62.5 g/ha application rate) of the same molecule?
A: 100%

Q: What about the LOLPE percentage phytotoxicity ([6]; 15.625 g/ha application rate) of the same molecule?
A: 100%

Q: And the LOLPE percentage phytotoxicity ([6]; 62.5 g/ha application rate)?
A: 100%

Q: And the pest or weed control at 15.625 g/ha ([7]; 15.625 g/ha application rate)?
A: 100%

Q: And the pest or weed control at 62.5 g/ha ([7]; 62.5 g/ha application rate)?
A: 100%

Q: What about the pest or weed control at 15.625 g/ha ([8]; 15.625 g/ha application rate) of the same molecule?
A: 70%

Q: And the pest or weed control at 62.5 g/ha ([8]; 62.5 g/ha application rate)?
A: 90%

Q: And the pest or weed control at 250 g/ha [9, 19]?
A: 70%

Q: And the pest or weed control at 250 g/ha [10, 19]?
A: 100%

Q: What about the pest or weed control at 250 g/ha [11, 19] of the same molecule?
A: 100%

Q: What about the pest or weed control at 250 g/ha [12, 19] of the same molecule?
A: 100%

Q: And the pest or weed control at 250 g/ha [13, 19]?
A: 100%

Q: What about the pest or weed control at 250 g/ha [14, 19] of the same molecule?
A: 90%

Q: And the pest or weed control at 30 g/ha [15, 18]?
A: 80%

Q: And the pest or weed control at 250 g/ha [16, 19]?
A: 100%

Q: What about the pest or weed control at 250 g/ha [17, 19] of the same molecule?
A: 100%
